Assays:
Assay type in all cases: organism-based
[1] = tested on: Phaseolus vulgaris; test: Phytotoxicity against Phaseolus vulgaris (Otebo dry beans) assessed as plant height at 420 g a.i./ha applied pre-emergence measured at 28 days post-emergence (reference value: 31 +/- 2 cm); conditions: in vivo, other, 672 h
[2] = tested on: Phaseolus vulgaris; test: Phytotoxicity against Phaseolus vulgaris (White dry beans) assessed as shoot dry weight at 420 g a.i./ha applied pre-emergence measured at 42 days post-emergence (reference value: 135 +/- 11 g/m); conditions: in vivo, other, 1008 h
[3] = tested on: Phaseolus vulgaris; test: Phytotoxicity against Phaseolus vulgaris (Black dry beans) assessed as shoot dry weight at 420 g a.i./ha applied pre-emergence measured at 42 days post-emergence (reference value: 136 +/- 9 g/m); conditions: in vivo, other, 1008 h
[4] = tested on: Phaseolus vulgaris; test: Phytotoxicity against Phaseolus vulgaris (Black dry beans) assessed as reduction in yield at 840 g a.i./ha applied pre-emergence relative to control; design: scale not given: the % may be the effect or the level left; conditions: in vivo, other
[5] = tested on: Phaseolus vulgaris; test: Phytotoxicity against Phaseolus vulgaris (Otebo dry beans) assessed as plant height at 840 g a.i./ha applied pre-emergence measured at 28 days post-emergence (reference value: 31 +/- 2 cm); conditions: in vivo, other, 672 h
[6] = tested on: Phaseolus vulgaris; test: Phytotoxicity against Phaseolus vulgaris (Yellow eye dry beans) assessed as plant height at 840 g a.i./ha applied pre-emergence measured at 28 days post-emergence (reference value: 33 +/- 1 cm); conditions: in vivo, other, 672 h
[7] = tested on: Phaseolus vulgaris; test: Phytotoxicity against Phaseolus vulgaris (Cranberry dry beans) assessed as reduction in yield at 840 g a.i./ha applied pre-emergence relative to control; design: scale not given: the % may be the effect or the level left; conditions: in vivo, other
[8] = tested on: Phaseolus vulgaris; test: Phytotoxicity against Phaseolus vulgaris (dry bean) assessed as visual crop injury at 420 g a.i./ha applied pre-emergence measured at 14 days post-emergence relative to control; conditions: in vivo, other, 336 h
[9] = tested on: Phaseolus vulgaris; test: Phytotoxicity against Phaseolus vulgaris (dry bean) assessed as visual crop injury at 840 g a.i./ha applied pre-emergence measured at 14 days post-emergence relative to control; conditions: in vivo, other, 336 h
[10] = tested on: Phaseolus vulgaris; test: Phytotoxicity against Phaseolus vulgaris (Otebo dry beans) assessed as visual crop injury at 420 to 840 g a.i./ha applied pre-emergence measured at 28 days post-emergence relative to control; conditions: in vivo, other, 672 h
[11] = tested on: Phaseolus vulgaris; test: Phytotoxicity against Phaseolus vulgaris (Black dry beans) assessed as reduction in shoot dry weight at 840 g a.i./ha applied pre-emergence measured at 42 days post-emergence relative to control; design: scale not given: the % may be the effect or the level left; conditions: in vivo, other, 1008 h
[12] = tested on: Phaseolus vulgaris; test: Phytotoxicity against Phaseolus vulgaris (Otebo dry beans) assessed as reduction in yield at 840 g a.i./ha applied pre-emergence relative to control; design: scale not given: the % may be the effect or the level left; conditions: in vivo, other
[13] = tested on: Phaseolus vulgaris; test: Phytotoxicity against Phaseolus vulgaris (Pinto dry beans) assessed as yield at 840 g a.i./ha applied pre-emergence (reference value: 3.1 +/- 0.1 tons/ha); conditions: in vivo, other
[14] = tested on: Phaseolus vulgaris; test: Phytotoxicity against Phaseolus vulgaris (dry beans) assessed as change in seed moisture content at 420 to 840 g a.i./ha applied pre-emergence relative to control; conditions: in vivo, other
[15] = tested on: Phaseolus vulgaris; test: Phytotoxicity against Phaseolus vulgaris (dry bean) assessed as visual crop injury at 840 g a.i./ha applied pre-emergence measured at 7 days post-emergence relative to control; conditions: in vivo, other, 168 h
[16] = tested on: Phaseolus vulgaris; test: Phytotoxicity against Phaseolus vulgaris (Yellow eye dry beans) assessed as reduction in shoot dry weight at 840 g a.i./ha applied pre-emergence measured at 42 days post-emergence relative to control; design: scale not given: the % may be the effect or the level left; conditions: in vivo, other, 1008 h
[17] = tested on: Phaseolus vulgaris; test: Phytotoxicity against Phaseolus vulgaris (Kidney dry beans) assessed as plant height at 420 g a.i./ha applied pre-emergence measured at 28 days post-emergence (reference value: 33 +/- 1 cm); conditions: in vivo, other, 672 h
[18] = tested on: Phaseolus vulgaris; test: Phytotoxicity against Phaseolus vulgaris (Kidney dry beans) assessed as reduction in shoot dry weight at 840 g a.i./ha applied pre-emergence measured at 42 days post-emergence relative to control; design: scale not given: the % may be the effect or the level left; conditions: in vivo, other, 1008 h
[19] = tested on: Phaseolus vulgaris; test: Phytotoxicity against Phaseolus vulgaris (Kidney dry beans) assessed as yield at 420 g a.i./ha applied pre-emergence (reference value: 1.9 +/- 0.1 tons/ha); conditions: in vivo, other
[20] = tested on: Phaseolus vulgaris; test: Phytotoxicity against Phaseolus vulgaris (Brown dry beans) assessed as shoot dry weight at 840 g a.i./ha applied pre-emergence measured at 42 days post-emergence (reference value: 123 +/- 7 g/m); conditions: in vivo, other, 1008 h
[21] = tested on: Phaseolus vulgaris; test: Phytotoxicity against Phaseolus vulgaris (Kidney dry beans) assessed as plant height at 840 g a.i./ha applied pre-emergence measured at 28 days post-emergence (reference value: 33 +/- 1 cm); conditions: in vivo, other, 672 h
[22] = tested on: Phaseolus vulgaris; test: Phytotoxicity against Phaseolus vulgaris (Brown dry beans) assessed as plant height at 420 g a.i./ha applied pre-emergence measured at 28 days post-emergence (reference value: 33 +/- 1 cm); conditions: in vivo, other, 672 h
[23] = tested on: Phaseolus vulgaris; test: Phytotoxicity against Phaseolus vulgaris (Pinto dry beans) assessed as plant height at 420 g a.i./ha applied pre-emergence measured at 28 days post-emergence (reference value: 32 +/- 1 cm); conditions: in vivo, other, 672 h
[24] = tested on: Phaseolus vulgaris; test: Phytotoxicity against Phaseolus vulgaris (White dry beans) assessed as plant height at 840 g a.i./ha applied pre-emergence measured at 28 days post-emergence (reference value: 31 +/- 2 cm); conditions: in vivo, other, 672 h
[25] = tested on: Phaseolus vulgaris; test: Phytotoxicity against Phaseolus vulgaris (Pinto dry beans) assessed as plant height at 840 g a.i./ha applied pre-emergence measured at 28 days post-emergence (reference value: 32 +/- 1 cm); conditions: in vivo, other, 672 h
[26] = tested on: Phaseolus vulgaris; test: Phytotoxicity against Phaseolus vulgaris (Cranberry dry beans) assessed as shoot dry weight at 420 g a.i./ha applied pre-emergence measured at 42 days post-emergence (reference value: 138 +/- 8 g/m); conditions: in vivo, other, 1008 h
[27] = tested on: Phaseolus vulgaris; test: Phytotoxicity against Phaseolus vulgaris (Yellow eye dry beans) assessed as plant height at 420 g a.i./ha applied pre-emergence measured at 28 days post-emergence (reference value: 33 +/- 1 cm); conditions: in vivo, other, 672 h
[28] = tested on: Phaseolus vulgaris; test: Phytotoxicity against Phaseolus vulgaris (Cranberry dry beans) assessed as reduction in shoot dry weight at 840 g a.i./ha applied pre-emergence measured at 42 days post-emergence relative to control; design: scale not given: the % may be the effect or the level left; conditions: in vivo, other, 1008 h
[29] = tested on: Phaseolus vulgaris; test: Phytotoxicity against Phaseolus vulgaris (Black dry beans) assessed as visual crop injury at 420 to 840 g a.i./ha applied pre-emergence measured at 28 days post-emergence relative to control; conditions: in vivo, other, 672 h

Cc1nn(-c2cc(NS(C)(=O)=O)c(Cl)cc2Cl)c(=O)n1C(F)F [SULFENTRAZONE]
Activity [1]: 28 cm
Activity [2]: 130 g/m
Activity [3]: 111 g/m
Activity [4]: 47%
Activity [5]: 23 cm
Activity [6]: 25 cm
Activity [7]: 44%
Activity [8]: 12%
Activity [9]: 30%
Activity [10]: 13.9%
Activity [11]: 35%
Activity [12]: 26%
Crop_yield [13]: 2.7 tons/ha
Activity [14]: Non-toxic
Activity [15]: 26%
Activity [16]: 40%
Activity [17]: 29 cm
Activity [18]: 35%
Crop_yield [19]: 1.9 tons/ha
Activity [20]: 121 g/m
Activity [21]: 25 cm
Activity [22]: 31 cm
Activity [23]: 30 cm
Activity [24]: 20 cm
Activity [25]: 26 cm
Activity [26]: 138 g/m
Activity [27]: 31 cm
Activity [28]: 40%
Activity [29]: 16.6%
